In ChEMBL document CHEMBL1201862, “PubChem BioAssay data set” (2004):
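48-hour exposure; five concentrations; linearly interpolated endpoints. GI50 is the concentration that inhibits growth by half.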 Calls of active or inactive are those of the source. Rule as the data show it: active = GI50 up to about 1.1 µM and inactive = higher.

What was measured:
Experiment in all cases: growth of human tumour cells (NCI), 48 h
786-0 = test system: 786-0
A549 = test system: A549
COLO 205 = test system: COLO 205
Hs-578T = test system: Hs-578T
IGROV-1 = test system: IGROV-1
KM12 = test system: KM12
M14 = test system: M14
MCF7 = test system: MCF7
MDA-MB-231 = test system: MDA-MB-231
MOLT-4 = test system: MOLT-4
NCI-H226 = test system: NCI-H226
OVCAR-3 = test system: OVCAR-3
SF-539 = test system: SF-539
SK-MEL-5 = test system: SK-MEL-5
SK-OV-3 = test system: SK-OV-3
SN12C = test system: SN12C
SNB-19 = test system: SNB-19
T47D = test system: T47D
UACC-62 = test system: UACC-62
LOX IMVI = test system: LOX IMVI

Measured: GI50

CC1CC(C)C(C#N)N(C)c2ccccc21 (configuration not stated)
inactive: 786-0 > 100 µM | A549 > 100 µM | COLO 205 > 100 µM | Hs-578T > 100 µM | IGROV-1 > 100 µM | KM12 > 100 µM | M14 > 100 µM | MCF7 81.3 µM | MDA-MB-231 > 100 µM | MOLT-4 66.7 µM | NCI-H226 > 100 µM | OVCAR-3 > 100 µM | SF-539 > 100 µM | SK-MEL-5 37.7 µM | SK-OV-3 > 100 µM | SN12C > 100 µM | SNB-19 > 100 µM | T47D > 100 µM | UACC-62 97.5 µM

COc1ccc(OC)c(-c2nc(O)c3ccccc3n2)c1
inactive: 786-0 > 100 µM | A549 > 100 µM | COLO 205 > 100 µM | Hs-578T > 100 µM | IGROV-1 > 100 µM | KM12 42.4 µM | M14 > 100 µM | MCF7 > 100 µM | MDA-MB-231 > 100 µM | MOLT-4 40.6 µM | NCI-H226 > 100 µM | OVCAR-3 > 100 µM | SF-539 50.7 µM | SK-MEL-5 74 µM | SK-OV-3 > 100 µM | SN12C > 100 µM | SNB-19 > 100 µM | T47D 25.6 µM | UACC-62 66.8 µM

CCOC(=O)C#Cc1cccc(C#CC(=O)OCC)c1
inactive: 786-0 4.47 µM | A549 6.53 µM | COLO 205 5.32 µM | Hs-578T 9.55 µM | IGROV-1 18.2 µM | KM12 6.65 µM | LOX IMVI 2.07 µM | M14 2.13 µM | MCF7 5.62 µM | MDA-MB-231 5.79 µM | NCI-H226 6.58 µM | OVCAR-3 6.07 µM | SF-539 5.14 µM | SK-MEL-5 4.25 µM | SK-OV-3 7.55 µM | SN12C 3.03 µM | SNB-19 5.71 µM | T47D 42.3 µM | UACC-62 4.94 µM

COc1ccccc1C(=O)NO
inactive: 786-0 > 100 µM | A549 > 100 µM | COLO 205 > 100 µM | Hs-578T > 100 µM | IGROV-1 > 100 µM | KM12 39.5 µM | LOX IMVI > 100 µM | M14 > 100 µM | MCF7 > 100 µM | MDA-MB-231 > 100 µM | MOLT-4 > 100 µM | NCI-H226 > 100 µM | OVCAR-3 > 100 µM | SK-MEL-5 > 100 µM | SK-OV-3 > 100 µM | SN12C > 100 µM | SNB-19 > 100 µM | T47D > 100 µM | UACC-62 > 100 µM

CC(C)(C)[Si](C)(C)OCCC1CC2(S(=O)(=O)C3=CC=C=C=C3)ON1CC2S(=O)(=O)c1ccccc1 (configuration not stated)
inactive: 786-0 > 10 µM | A549 > 10 µM | COLO 205 > 10 µM | Hs-578T > 10 µM | IGROV-1 > 10 µM | KM12 > 10 µM | M14 > 10 µM | MCF7 > 10 µM | MDA-MB-231 > 10 µM | MOLT-4 > 10 µM | NCI-H226 > 10 µM | OVCAR-3 > 10 µM | SF-539 > 10 µM | SK-MEL-5 > 10 µM | SK-OV-3 > 100 µM | SN12C > 10 µM | SNB-19 > 10 µM | T47D > 10 µM | UACC-62 > 10 µM

O=C1C=C(N2CCN(CCOCCO)CC2)C(=O)c2c(O)ccc(O)c21
inactive: 786-0 8.55 µM | A549 3.56 µM | COLO 205 1.38 µM | Hs-578T 20.1 µM | IGROV-1 3.74 µM | KM12 12 µM | LOX IMVI 1.92 µM | M14 1.56 µM | MCF7 1.42 µM | MDA-MB-231 7.35 µM | NCI-H226 16.9 µM | OVCAR-3 1.82 µM | SF-539 10.6 µM | SK-MEL-5 1.72 µM | SK-OV-3 20.6 µM | SN12C 4.22 µM | SNB-19 18.4 µM | T47D 5.65 µM | UACC-62 1.82 µM

c1csc(-c2csc(-c3cccs3)c2)c1
inactive: 786-0 52.1 µM | A549 30.8 µM | COLO 205 18 µM | Hs-578T 51.3 µM | IGROV-1 78.5 µM | KM12 28.9 µM | LOX IMVI 57.7 µM | M14 58.1 µM | MCF7 8.85 µM | MDA-MB-231 > 100 µM | MOLT-4 28.6 µM | OVCAR-3 29.4 µM | SF-539 > 100 µM | SK-MEL-5 18.7 µM | SK-OV-3 95.9 µM | SN12C 34.2 µM | SNB-19 32.4 µM | T47D 3.2 µM | UACC-62 20.8 µM

COC1=Nc2ccccc2S(=O)(=O)C=C1
inactive: 786-0 3.29 µM | A549 18.2 µM | COLO 205 1.79 µM | Hs-578T 18.7 µM | IGROV-1 13.7 µM | KM12 14.8 µM | LOX IMVI 2.84 µM | M14 7.64 µM | MCF7 2.61 µM | MDA-MB-231 13.2 µM | NCI-H226 > 87.3 µM | OVCAR-3 2.78 µM | SF-539 16.7 µM | SK-MEL-5 11.4 µM | SK-OV-3 45.7 µM | SN12C 14.4 µM | SNB-19 24.7 µM | T47D 3.66 µM | UACC-62 17.9 µM
